Assay: mn = molality of the nth substance listed, in mol/kg
Settings: 100 kPa, Liquid; for viscosity: Falling or rolling sphere viscometry; for mass density: Vibrating tube method; for electrical conductivity: Alternating current cell with electrodes

CCC(=O)OCCN1CCNCC1 [2-(piperazin-1-yl)ethyl propionate] + CCO
Settings | electrical conductivity, 313.15 K [S/m] | electrical conductivity, 318.15 K [S/m] | mass density, 308.15 K [kg/m3] | mass density, 313.15 K [kg/m3] | viscosity, 308.15 K [mPa·s] | viscosity, 313.15 K [mPa·s]
m1 = 0.05 | 0.0197 | 0.0198 | 779.32 | 774.92 | – | 0.856
m1 = 0.1 | 0.0323 | 0.0328 | 782.05 | 777.65 | – | 0.893
m1 = 0.1985 | 0.0513 | 0.0525 | 787.4 | 783 | – | 0.939
m1 = 0.3005 | 0.0674 | 0.0694 | 793.06 | 788.67 | – | 1.003
m1 = 0.4001 | 0.0806 | 0.0833 | 798.51 | 794.13 | – | 1.066
m1 = 0.5007 | 0.0937 | 0.0972 | 804.18 | 799.81 | – | 1.145
m1 = 0.5998 | 0.1048 | 0.109 | 809.68 | 805.32 | – | 1.225
m1 = 0.7002 | 0.1144 | 0.119 | 815.4 | 811.06 | – | 1.317
m1 = 0.8 | 0.125 | 0.1309 | 821.15 | 816.82 | – | 1.435
m1 = 0.8957 | 0.1335 | 0.14 | 826.9 | 822.6 | – | 1.529
m1 = 1 | 0.1433 | 0.1514 | 832.84 | 828.55 | 1.841 | 1.655
m1 = 1.198 | 0.158 | 0.168 | 844.51 | 840.27 | 2.166 | 1.94
m1 = 1.401 | 0.1717 | 0.1837 | 857.11 | 852.89 | 2.605 | 2.319
m1 = 1.602 | 0.1817 | 0.195 | 869.1 | 864.93 | 3.182 | 2.817
m1 = 1.8 | 0.189 | 0.204 | 881.5 | 877.36 | 3.932 | 3.459
m1 = 2.001 | 0.1932 | – | 894.88 | 890.78 | 5.113 | 4.464
m1 = 2.198 | 0.1946 | – | 906.86 | 902.73 | 6.285 | 5.328
m1 = 2.397 | 0.193 | – | 920.09 | 916.08 | 7.874 | 6.774
m1 = 2.597 | 0.1842 | – | 933.36 | 929.4 | 11.18 | 9.473
m1 = 2.796 | 0.177 | – | 946.62 | 942.71 | 14.4 | 12.12
m1 = 3.006 | 0.166 | – | 960.85 | 956.85 | 20.29 | 16.88

— the NIST ThermoML archive (doi:10.1021/je500380x)
